The test system of series [1] is hippocampal neurogenesis in the DG. The experiment in a line: Comparison of P7C3 compounds and antidepressant drugs: DG BrdU labeling after i.c.v. infusion. In kind it is in vivo, mouse. The note with it: 10 μM i.c.v. for 7 days. The text has this:
The neuroprotective efficacies of both P7C3 and P7C3-A20 were next compared to currently marketed antidepressant medications, using screening conditions identical to those by which P7C3 was originally discovered. This experiment was based on the antidepressant actions of P7C3 and P7C3-A20 characterized here, and the dependence on hippocampal neurogenesis for behavioral efficacy of some marketed antidepressant medications in mice.
Proneurogenic efficacies in the DG of P7C3 and P7C3A20 were compared to those of vehicle (artificial cerebrospinal fluid) and several marketed antidepressant compounds (Sigma-Aldrich, St. Louis, Mo.) according to established methods. In brief, mice were housed individually in cages without running wheels or any form of environmental enrichment, in order to create an environment predicted to have as low of a baseline level of hippocampal neurogenesis as possible. Compounds (10 μM, i.c.v.) were administered for 7 days via subcutaneously implanted Alzet osmotic minipumps connected to a cannula directed into the left lateral ventricle, with implantation day designated as day 0. Starting on day 1, mice also received daily injections of BrdU (50 mg/kg, i.p.) at 9 am daily, for 6 days. Twenty four hours after the sixth BrdU injection, mice were transcardially perfused as described above.
A general note: Incorporation of labelled thymidine or its analogues reports DNA synthesis.

The subject of a further series is U2OS cells. The experiment in a line: Calcium ionophore A23187-induced loss of mitochondrial membrane potential (TMRM dye release). It is filed as cell-based. The note with it: TMRM dye. From the text: FIG. 22A, FIG. 22B, FIG. 22C, FIG. 22D, FIG. 22E and FIG. 22F: Example 45 Compound Preserves Mitochondrial Membrane Potential in Parallel to Proneurogenic Activity U2OS cells were loaded with tetramethylrhodamine methyl ester (TMRM) dye and then exposed to the calcium ionophore A23187 either in the presence or absence of test compounds. Example 45 Compound (FIG. 22A) preserved mitochondrial membrane potential following exposure to the calcium ionophore A23187 in a dose-dependent manner. The protective effect of P7C3 was enantiomeric specific. […] Each compound was evaluated in triplicate with similar results.
Extensive evidence pioneered by the laboratory of Xiaodong Wang has shown that an intrinsic pathway leading to programmed cell death emanates from mitochondria (Liu et al., Cell 1996, 86, 147-157; Yang et al., Science 1997, 275, 1129-1132). With the help of the Wang lab, assays were established to test whether Example 45 Compound might protect mitochondria from calcium-induced dissolution (Distelmaier et al., Cytometry A 2008, 73, 129-138). Tetramethylrhodamine methyl ester (TMRM) is a cell-permeant, cationic red-orange fluorescent dye that is readily sequestered by active mitochondria. When loaded with TMRM dye, vehicle-only treated cells released the dye within 15 minutes of exposure to the calcium ionophore A23187. By contrast, dye release was prevented in cells exposed to as little as […] of Example 45 Compound (FIG. 18A).
Since P7C3 ameliorates the death of newborn neurons in the dentate gyrus in living mice, it is possible that its function might relate to mitochondrial integrity. Assays were established to test whether P7C3 might protect cultured U2OS cells from calcium-induced mitochondrial dissolution (Distelmaier et al., Cytometry A 2008, 73, 129-138). Tetramethylrhodamine methylester (TMRM) dye is sequestered by active mitochondria, and, when loaded with TMRM, vehicle-treated cells released the dye within 15 rain of exposure to the calcium ionophor A23 187.

Series [2] deals with neural precursor cells in the subgranular zone of the dentate gyrus. The experiment in a line: In vivo pro-neurogenic efficacy/neuroprotection assay: intracerebroventricular infusion, BrdU incorporation in the dentate gyrus. Also noted: species or system mouse (C57/Bl6). The note with it: direct administration into the brain via Alzet minipumps for one week, 10 μM unless stated. On the procedure:
Compounds were evaluated for pro-neurogenic efficacy/neuroprotection in our standard in vivo assay at 10 μM concentration in four 12 week old adult male C57/Bl6 mice.
In an effort to identify compounds that might stimulate the birth of new neurons, or protect newborn neurons from cell death, a library of 1,000 compounds was screened using an in vivo assay. In the initial screen, compounds were randomly pooled into groups often and administered intracerebroventricularly at a constant rate over seven days into the left lateral ventricle of living mice via Alzet osmotic mini-pumps. Compounds were administered at a concentration of 10 μM for each molecule, making a total solute concentration of 100 μM. After seven days of infusion at a constant rate of 0.5 μL/hour, a total of 84 μL of volume will have left the pump (0.00084 μMoles) and entered the cerebrospinal fluid. The average volume of a brain from a 12 week old male, C57/B6 mouse in our study is 500 mm^3. […] Under these conditions, at the end of one week of infusion each compound would be present at 1.7 μMolar concentration. Since the actual amount of chemical compound in the brain is likely to be only a fraction of this predicted level, it is reasonable to estimate that compounds were administered at mid to low-nanomolar concentrations.
During compound infusion, animals were intraperitoneally (IP) injected daily with the thymidine analog, bromodeoxyuridine (BrdU), as a means of scoring the birth and survival of proliferating neural precursor cells in the hippocampus. Because both social interaction and voluntary exercise are known to stimulate hippocampal neurogenesis, mice were housed individually without access to running wheels throughout the screening period. Following the week-long period of compound administration, animals were perfused and sacrificed. Dissected brain tissue was fixed, embedded, sectioned, stained with antibodies to BrdU, and evaluated by light microcopy as a means of quantifying neurogenesis and survival of newborn neural precursor cells localized to the subgranular layer of the dentate gyrus on the brain hemisphere contralateral to the side of mini-pump cannulation. Every fifth section throughout the entire rostral-caudal extent of the hippocampus was analyzed, and the total number of BrdU+ cells was normalized against the measured volume of the dentate gyrus. Because both increased proliferation and survival of newborn neurons are important screening parameters, the screen was conducted over seven days in order to cast a wide net to detect molecules that might augment either process. […] Intracranial infusions of either fibroblast growth factor 2 (FGF-2) or artificial cerebral spinal fluid (aCSF) vehicle via the same, week-long protocol were employed as positive and negative controls. There was no difference in the number of BrdU-labeled cells in the dentate gyrus between mice subjected to surgical pump implantation and infusion with vehicle, and mice having had no surgery (FIG. 2). This confirmed the validity of the in vivo approach to assess the ability of intracerebroventricularly infused compounds to enhance hippocampal neurogenesis in the contralateral hemisphere.
In order to further study Example 45 Compound, an in vivo structure activity relationship (SAR) study was conducted using 37 chemical derivatives of the compound for pro-neurogenic activity via direct administration into the brain of adult mice via Alzet minipumps. Compounds were administered for one week at 10 uM into 4 mice per compound, along with daily IP injections of BrdU. Following compound administration, animals were perfused, sacrificed and subjected to sectioning, staining and light microscopy in order to monitor hippocampal neurogenesis localized to the subgranular layer of the dentate gyrus. Roughly 10% of the variant compounds retained pro-neurogenic activity indistinguishable from the parent compound. […]

Series [3] concerns cultured primary cortical neurons. The experiment in a line: Mitochondrial membrane potential (TMRM) after A23187 in cultured primary cortical neurons. It is filed as cell-based. The conditions noted are these: rat E14 cortical neurons.
Excerpt: (§1) FIG. 23: Example 45 Compound Preserves Mitochondrial Membrane Potential in Cultured Primary Cortical Neurons. Cortical neurons cultures from rats on embryonic day 14 were loaded with tetramethylrhodamine methyl ester (TMRM) dye after 6 days of maturation. […] The remaining panels are from cells that were exposed to the calcium ionophore A23187 at time zero. With vehicle-alone, cortical neuron mitochondrial membrane potential was rapidly lost after exposure to the ionophore. […] Results shown are representative of 10 fields analyzed in each of 2 experimental runs for all conditions.
as §1, with “It was also examined whether” for “FIG. 23:”, “preserves mitochondrial membrane potential” for “Preserves Mitochondrial Membrane Potential”, “cultured primary cortical neurons (FIG. 23).” for “Cultured Primary Cortical Neurons.”

The next series in a line: Solubility. It is filed as physicochemical.
Series [4] deals with neural precursor cells in the subgranular zone of the dentate gyrus. The note with it: dosed intracranially as a 10 micromolar solution; MacMillan et al., J Am. Chem. Soc. 2011; cited from earlier work.

We go through eleven compounds from patent publication US10183011B2, “Anti-depression compounds” (Board of Regents of the University of Texas System, priority 2009, dated 2019).

Molecules are shown by their SMILES.

In the case of `CN1CCN2c3ncccc3Cc3ccccc3C2C1` (stereo not shown) [mirtazapine], the “increase of DG neurogenesis (BrdU labeling) over vehicle” value (from here on “increase of DG neurogenesis”) in series [1] is given as “did not affect the magnitude of neurogenesis”.

Turning to `CN[C@H]1CC[C@@H](c2ccc(Cl)c(Cl)c2)c2ccccc21` [sertraline], the “increase of DG neurogenesis” value in series [1] is “did not affect the magnitude of neurogenesis”.

Turning to `COc1ccc(C(CN(C)C)C2(O)CCCCC2)cc1` (stereo not shown) [venlafaxine], the “increase of DG neurogenesis” value in series [1] is “did not affect the magnitude of neurogenesis”.

Regarding `COc1cccc(NCC(O)Cn2c3ccc(Br)cc3c3cc(Br)ccc32)c1` (single isomer, unassigned; (+)) [(+) enantiomer of Example 62 Compound, 1-(3,6-Dibromo-9H-carbazol-9-yl)-3-(3-methoxyphenylamino)-propan-2-ol], the “preservation of mitochondrial membrane potential” value (“preservation” below) with U2OS cells was “observed only with the (+) enantiomer”. Further, the “pro-neurogenic activity in the in vivo hippocampal neurogenesis assay” value in series [2] is reported as “fully retained”; in series [2] (listed as (+)-enantiomer of Example 62 Compound), “retained potent pro-neurogenic activity”.

On to `CN(C)CCCN1c2ccccc2CCc2ccc(Cl)cc21` [clomipramine], for which the “increase of DG neurogenesis” value in series [1] is approximately 75%.

Take `Cc1cc(C)n(CC(O)Cn2c3ccc(Br)cc3c3cc(Br)ccc32)n1` (stereo not shown) [Example 33, 1-(3,6-dibromo-9H-carbazol-9-yl)-3-(3,5-dimethyl-1H-pyrazol-1-yl)propan-2-ol]: the “preservation” value in the series with U2OS cells is “displayed less protective effect”; in series [3], “less effective in preserving mitochondrial membrane potential at any dose tested”.

`CN(C)CCCN1c2ccccc2CCc2ccccc21` [imipramine]: the “increase of DG neurogenesis” value in series [1] was “did not affect the magnitude of neurogenesis”.

In the case of `Fc1ccc([C@@H]2CCNC[C@H]2COc2ccc3c(c2)OCO3)cc1` [paroxetine], the “increase of DG neurogenesis” value in series [1] was “did not affect the magnitude of neurogenesis”.

Regarding `COc1cccc(NCC(O)Cn2c3ccc(Br)cc3c3cc(Br)ccc32)c1` (single isomer, unassigned) [Example 1b, 1-(3,6-Dibromo-9H-carbazol-9-yl)-3-(3-methoxyphenylamino)-propan-2-ol], the “preservation” value in the series with U2OS cells is recorded as “Preservation of mitochondrial membrane potential in this assay was observed”.

For the compound `OC(CCNc1ccccc1)Cn1c2ccc(Br)cc2c2cc(Br)ccc21` (stereo not shown) [Example 21, 1-(3,6-dibromo-9H-carbazol-9-yl)-4-(phenylamino)butan-2-ol], in the series on U2OS cells, the “preservation” value is “displayed less protective effect”.

For `OC(CNc1ccccc1)Cn1c2ccccc2c2ccccc21` (stereo not shown) [Example 76, 1-(9H-carbazol-9-yl)-3-(phenylamino)propan-2-ol], in the series “Solubility”, the solubility result is “low solubility”. The “pro-neurogenic activity in the in vivo hippocampal neurogenesis assay” value in series [2] is recorded as “found to be active”. Moreover, in series [4], the “pro-neurogenic activity of a commercial sample in the neurogenesis assay” value is “indistinguishable from vehicle”.
